# Data taken from patent publication US11034656B2, “Maleate salts of (E)-N-(3-cyano-7-ethoxy-4-((4-phenoxyphenyl)amino) quinolin-6-yl)-4-(dimethylamino)but-2-enamide and crystalline forms thereof” (TELIGENE LTD, priority 2017, dated 2021).
# Structures can show the parent of a compound that is named as a salt. Where two headings read alike, the source gives them in different places.
# What was measured:
# Crystallinity by PXRD = format: physicochemical
# Method: PXRD is performed in Rigaku UltimaIV diffractometer, copper target, λ=1.5406 A; working voltage 40 kv; working current: 40 Ma; scan speed: 60.000 deg./min; scan range: 4.0000->60.0000 deg.
# [1] = Bioavailability in SD rats (I.V. and PO); format: in vivo; details: rat, blood, male, I.V. 5 mg/kg, PO 10 mg/kg via gavage
# Hygroscopicity test = format: physicochemical; details: 25° C.±1° C., relative humidity 80%±2%, 24 hours, (m3−m2)/(m2−m1)*100%
# Method: Hygroscopicity tests of ((E)-N-(3-cyano-7-ethoxy-4-((4-phenoxyphenyl)amino) quinolin-6-yl)-4-(dimethylamino)but-2-enamide in different acid salts have been carried out by the following method:
# Take the dry glass weighing bottle which has a plug (outer diameter is 50 mm, high is 15 mm); placed in a suitable 25° C.±1° C. constant temperature dryer (place a saturated solution of ammonium chloride or ammonium sulfate in the lower part) or artificial climate box (set the temperature to 25° C.±1° C. and the relative humidity to 80%±2%) one day before the test, accurately weighting its weight (m1).
# Take appropriate amount of the test sample and lay it in the above weighing bottle, the thickness of the test sample is generally 1 mm, accurately weighting its weight (m2).
# Open the weighing bottle and place it at the constant temperature and humidity as above-mentioned for 24 hours with its plug.
# Accurately weighting its weight (m3), including the weighing bottle and its plug. Percentage of weight gain=(m3−m2)/(m2−m1)*100%
smiles,measurement,setting,value
"CCOc1cc2ncc(C#N)c(Nc3ccc(Oc4ccccc4)cc3)c2cc1NC(=O)/C=C/CN(C)C.O=C(O)/C=C\C(=O)O [Maleate salt, (E)-N-(3-cyano-7-ethoxy-4-((4-phenoxyphenyl)amino)quinolin-6-yl)-4-(dimethylamino)but-2-enamide Maleate]",Crystallinity by PXRD,Crystallinity by PXRD,crytalline
same,bioavailability,[1],49.6%
same,weight gain (%),Hygroscopicity test,0.2%
"CCOc1cc2ncc(C#N)c(Nc3ccc(Oc4ccccc4)cc3)c2cc1NC(=O)/C=C/CN(C)C [Citrate salt, (E)-N-(3-cyano-7-ethoxy-4-((4-phenoxyphenyl)amino)quinolin-6-yl)-4-(dimethylamino)but-2-enamide Citrate]",Crystallinity by PXRD,Crystallinity by PXRD; Citrate,crystalline
same,bioavailability,[1],36.7%
same,weight gain (%),Hygroscopicity test; Citrate,27.04%
"CCOc1cc2ncc(C#N)c(Nc3ccc(Oc4ccccc4)cc3)c2cc1NC(=O)/C=C/CN(C)C [L-malate salt, (E)-N-(3-cyano-7-ethoxy-4-((4-phenoxyphenyl)amino)quinolin-6-yl)-4-(dimethylamino)but-2-enamide Malate]",Crystallinity by PXRD,Crystallinity by PXRD; Malate,amorphous
same,weight gain (%),Hygroscopicity test; Malate,16.36%
"CCOc1cc2ncc(C#N)c(Nc3ccc(Oc4ccccc4)cc3)c2cc1NC(=O)/C=C/CN(C)C [Hydrochloride acid salt, (E)-N-(3-cyano-7-ethoxy-4-((4-phenoxyphenyl)amino)quinolin-6-yl)-4-(dimethylamino)but-2-enamide Hydrochloride]",Crystallinity by PXRD,Crystallinity by PXRD,amorphous
same,weight gain (%),Hygroscopicity test; Hydrochloride,46.67%
"CCOc1cc2ncc(C#N)c(Nc3ccc(Oc4ccccc4)cc3)c2cc1NC(=O)/C=C/CN(C)C [Sulphate salt, (E)-N-(3-cyano-7-ethoxy-4-((4-phenoxyphenyl)amino)quinolin-6-yl)-4-(dimethylamino)but-2-enamide Sulfate]",weight gain (%),Hygroscopicity test; Sulfate,36.13%
